Reference: patent US20100048676A1, “Non-androgen dependent roles for androgen receptor in liver cancer” (University of Rochester, priority 2008, published 2010)
Read-outs that look alike come from different tables or passages of the source.

Legend:
[1] = test system: SKAR3 cells; assay: ASC-J9 effect on SKAR3 cell growth (MTT assay); format: cell-based, human; details: 5 μM ASC-J9, in the presence of 10 nM DHT
From the text: (§1) FIG. 6. Targeting AR as therapeutic strategy. (A) Establishment of AR siRNA stable transfectants of human SKAR3 cells. Scrambled siRNA (SKAR3-sc, lane 3) and different siRNA targeting AR (SKAR3-si1; SKAR3-si2; SKAR3-si3) stable transfectants derived from SKAR3 cells. LNCaP and SK-Hep1 cells served as positive and negative controls of AR expression, respectively. (B) AR transactivation activity was used to examine the knockdown efficiency of AR siRNA in the SKAR3 cells. The SKAR3-si1 cells were used to compare with SKAR3-sc cells and treated with EtOH and 1 nM DHT for 24 hrs after ARE(4)-luciferase transfection. The readings were normalized with the read out of pRL-TK cotransfection and pooled three individual experiments. (C) AR siRNA effect on SKAR3 cell growth. SKAR3-sc and SKAR3-si1 cells were treated with EtOH or 1 nM DHT, then observed cell growth by counting cells on different days. (D) ASC-J9 effect on SKAR3 and SKAR7 cells. Cells were plated and cultured with EtOH, 10 nM DHT and 5 μM ASC-J9 for different days and examined cell growth using MTT assay. (E) ASC-J9 effect on SKAR3 cell apoptosis and proliferation. Cells were cultured with 10 nM DHT, or 5 μM ASC-J9 for 24 hrs, then detached, stained with PI, assayed immediately by flowcytometry to observe cell apoptosis. […] Six injection sites from 3 mice were measured and pooled. […]

[2] = test system: SKAR7 cells; assay: ASC-J9 effect on SKAR7 cell growth (MTT assay); format: cell-based, human; details: 5 μM ASC-J9, in the presence of 10 nM DHT
From the text: as §1

[3] = test system: SKAR3 cells; assay: SKAR3 cell apoptosis, PI staining and flowcytometry; format: cell-based, human; details: 5 μM ASC-J9, 24 hrs, absence or presence of 10 nM DHT
From the text: as §1

[4] = test system: primary tumor cells isolated from AR+/y mice livers; assay: Growth of primary cells from DEN-induced AR+/y liver tumors (MTT assay); format: cell-based, mouse
Protocol: (E) Cell growth analysis using MTT assay on the cells derived from AR^+/y primary liver tumor culture in 55-weeks DEN-induced AR^+/y mice. Cells within 3 passages of subculture were used, treated with ethanol (EtOH) or DHT at different concentrations (1 and 10 nM). Cell growth was monitored for a maximum of 8 days and harvested for MTT assay. Values from background readings at 650 nm were subtracted and pooled all MTT assay results from 5 independent experiments.
(F) Primary cells were derived from 55-weeks DEN-induced AR^+/y liver tumors and cultured ex vivo. Cells were treated with ASC-J9 or cotreated with 10 nM DHT for 8 days, then harvested for MTT assay. The result represents three independent experiments.
The hepatic cells were isolated from 55-weeks-old DEN-treated mice and performed primary hepatic cell culture as described previously(30). […] The cells were maintained in DMEM (Invitrogen) with 10% Fetal Calf Serum (FCS), 1% Glutamine; and 1% penicillin/streptomycin. The cell growth assays were performed according to a previous study(32) using cell counting assay or MTT (3-(4,5-Dimethylthiazol-2-yl)-2,5-diphenyltetrazolium bromide) assay(33).

[5] = test system: primary liver tumor of AR+/y mice; assay: Primary liver tumor cells inoculated subcutaneously into nude mice, tumor growth; format: in vivo, mouse; details: I.P. 50 mg/kg/mice twice per week, 17 weeks
From the text: as §1

[6] = injection of ASC-J9 for 15 weeks, mice; cited from earlier work
[7] = test system: AR transactivation; assay: ARE(4)-luciferase promoter assay of AR transactivation in SKAR3 sublines; format: cell-based, human; details: 1 nM DHT
From the text: as §1

[8] = test system: SKAR3 cells; details: SKAR3-EtOH vs SKAR3-DHT, 10 nM DHT, 4 days
Protocol: (§2) FIG. 3. […] (A) Apoptotic cells in SKpar and SKAR3 cells. […] (B) Androgen and AR effect on anchorage-dependent cell growth. […] (C) Anchorage-independent cell growth of SKpar and SKAR3 cells. Cell clusters greater than 50 cells were counted as a positive clone.
(§3) The hepatic cells were isolated from 55-weeks-old DEN-treated mice and performed primary hepatic cell culture as described previously(30). The cells were plated onto 100-mm BioCoat mouse collagen I coated dishes (BD Biosciences) at a density of 5×10^5 viable cells/dish in low glucose Dulbecco's modified Eagle's medium (Invitrogen) containing 1% bovine serum albumin, 0.8 mM oleate, […] insulin (4 milliunits/ml), […] dexamethasone, 100 units of penicillin, and 1% of streptomycin/ml. Human HCC cells were obtained from Dr. Y. S. Jou in Acdemia Secienica, Taiwan published previously(31). The cells were maintained in DMEM (Invitrogen) with 10% Fetal Calf Serum (FCS), 1% Glutamine; and 1% penicillin/streptomycin.

[9] = test system: SKpar cells; details: SKpar-EtOH vs SKpar-DHT, 10 nM DHT, 4 days
Protocol: as §2, §3

[10] = test system: SKAR3 cells; details: 10 nM DHT
From the text: as §2

[11] = test system: superoxide dismutase 2 (SOD2); details: 10 nM DHT
Protocol: (§4) FIG. 10. Examination of ROS reducing gene mRNA expression using SKpar and SKAR cells, (A, B) We plated cells and treated as indicated for 24 hrs. We examined Thioreducin-2 (A) and SOD2 (B) mRNA using Q-PCR as described in Methods.
(§5) The mRNA expression of MnSOD (SOD2), Thioreducin-2, and Gadd45 was determined using quantitative RT-PCR (Q-PCR) as previous described(37), and primer sequences are as follows.

[12] = test system: thioreducin-2; details: 10 nM DHT
Protocol: as §4, §5

[13] = test system: SKAR3 cells; details: 1 nM DHT with H2O2 treatment, 24 hrs
Protocol: (B) SKpar and SKAR3 cells were treated with 200 μM H2O2 or 1 nM DHT for 24 hrs and measured ROS level.

[14] = test system: p53; details: 10 nM DHT for 2, 4, and 8 hrs, time-dependent
Protocol: (A) p53 protein expression of SKpar and SKAR3 cells. We treated SKpar and SKAR3 cells with 10 nM DHT for 2, 4, and 8 hrs and measured protein abundance by immunoblotting assay using p53 specific antibody. GAPDH served as loading control.
The p53 expression was analyzed using immunoblotting assay(32) to semi-quantitate p53 protein abundance in the hepatic tumor and HCC cells. […] Protein abundance was measured by Western blotting as previously described(38) using specific antibodies against AR (Pharmingen), p53 (Cell Signaling), Gadd45, . . . , and Bcl-2 (Santa Cruz).

[15] = test system: AR; assay: AR expression in SKAR3 cells stably transfected with AR-siRNA; format: cell-based, human; details: SKAR3-si1, 2 or 3 vs SKAR3-sc
From the text: as §1

[16] = test system: SKAR3 cells; assay: AR siRNA effect on SKAR3 cell growth (SKAR3-sc vs SKAR3-si1); format: cell-based, human; details: 1 nM DHT
From the text: as §1

[17] = test system: AR; details: MCF-7 cells, retrovirus-based vector; cited from earlier work

COc1ccc(C=CC(=O)C=C(O)C=Cc2ccc(OC)c(OC)c2)cc1OC [ASC-J9, 5-hydroxy-1,7-bis(3,4-dimethoxyphenyl)-1,4,6-heptatrien-3-one]
cell growth [1]: suppression of cell growth | cell growth [2]: suppression of cell growth | cell apoptosis [3]: increased cell apoptosis | primary tumor cell growth ([4]; 5 μM ASC-J9, absence or presence of 10 nM DHT, 8 days): suppressed the primary tumor cell growth | tumor growth [5]: suppression of tumor growth | serum testosterone [6]: little change in serum testosterone | sexual function and fertility [6]: retained normal sexual function and fertility

C[C@]12CCC(=O)C[C@@H]1CC[C@@H]1[C@@H]2CC[C@]2(C)[C@@H](O)CC[C@@H]12 [DHT, 5α-dihydrotestosterone]
cell growth (cell numbers) ([4]; DHT 1 and 10 nM, maximum of 8 days): cell numbers increased in a dose-dependent manner | AR transactivation induced by DHT ([7]; SKAR3-sc cells): could induce substantial AR transactivation | cell growth [8]: further increased cell growth | cell growth [9]: little effect | AR-promoted anchorage-independent cell growth [10]: little influence | SOD2 mRNA expression ([11]; SKAR3 cells treated with H2O2): decreased | H2O2-induced SOD2 mRNA expression ([11]; SKpar cells): failed to suppress | thioreducin-2 mRNA expression ([12]; SKAR3 cells treated with H2O2): decreased | H2O2-induced thioreducin-2 mRNA expression ([12]; SKpar cells): failed to suppress | ROS level [13]: further enhanced | p53 protein expression [14]: down-regulation of p53

AR-siRNA: retrovirus-based vector that expresses AR-siRNA; stable SKAR3 sublines SKAR3-si1, 2 or 3 (guide GGGCCCCTGGATGGATAGCTACCTCGAGGTAGCTATCCATCCAGGGGCC)
AR expression [15]: substantially knocked down | AR-mediated transactivation under AR-siRNA ([7]; SKAR3-si1 vs SKAR3-sc, 24 hrs): could induce substantial AR transactivation in SKAR3-sc, but not SKAR3-si1 cells | DHT-induced cell growth [16]: suppression of DHT-induced cell growth | AR knockdown [17]: effectively knocked down the AR
